# In patent US8993756B2 (Merck Sharp & Dohme Corp., priority 2011, dated 2015):
# Tests used:
# JAK3 = JAK3 (Homo sapiens (Human), UniProt P52333); assay: Jak Biochemical HTRF Assay (JAK3); conditions: recombinant GST-tagged catalytic domain, [ATP] 2.9 μM
# Description: (§1) Biological Assays Jak Biochemical HTRF Assay Protocol
# The ability of compounds to inhibit the activity of JAK1, JAK2, JAK3, and Tyk2 was measured using a recombinant purified GST-tagged catalytic domain for each enzyme (Invitrogen JAK1 #M4290, JAK2 #M4290, JAK3 #M4290, Tyk2 #M4290) in an HTRF format biochemical assay. […] Subsequent reagent additions employed an Agilent Bravo. […] After equilibration, 2 μL of 10×ATP in 1× assay buffer was added to initiate the kinase reaction and the plates were shaken and then incubated at room temperature for 120 minutes. At the end of the incubation, 20 μL of 2× stop buffer (streptavidin-Dylight 650 (Thermo #84547B100 mL), Eu-tagged pY20 antibody (Perkin Elmer #AD0067), EDTA, HEPES, and Triton) was added to quench the reaction. […] After normalization to untreated controls, the percent inhibition of the HTRF signal at each compound concentration was calculated. The plot of percent inhibition versus the log of compound concentration was fit with a 4-parameter dose response equation to calculate IC50 values.
# JAK2 = JAK2 (Homo sapiens (Human), UniProt O60674); assay: Jak Biochemical HTRF Assay (JAK2); conditions: recombinant GST-tagged catalytic domain, [ATP] 8.5 μM
# JAK2, sequence (O60674 849-1124): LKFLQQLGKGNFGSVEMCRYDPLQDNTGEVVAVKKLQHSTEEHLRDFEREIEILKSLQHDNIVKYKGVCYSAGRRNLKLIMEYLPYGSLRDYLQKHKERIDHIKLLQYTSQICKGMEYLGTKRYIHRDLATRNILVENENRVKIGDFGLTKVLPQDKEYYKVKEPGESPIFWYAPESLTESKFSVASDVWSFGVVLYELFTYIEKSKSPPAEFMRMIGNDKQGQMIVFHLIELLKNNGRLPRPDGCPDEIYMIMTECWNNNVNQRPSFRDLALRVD
# Description: as §1
# The ability of compounds to inhibit the activity of JAK1, JAK2, JAK3, and Tyk2 was measured using a recombinant purified GST-tagged catalytic domain for each enzyme (Invitrogen JAK1 #M4290, JAK2 #M4290, JAK3 #M4290, Tyk2 #M4290) in an HTRF format biochemical assay. […] The basic assay protocol is as follows: First, 250 nL of diluted compounds in DMSO were dispensed into the wells of a dry 384-well Black plate (Greiner #781076) using a Labcyte Echo 555 acoustic dispenser. Subsequent reagent additions employed an Agilent Bravo. Next, 18 μL of 1.11× enzyme and 1.11× substrate in 1× assay buffer (Invitrogen kinase buffer # PV3189, 2 mM DTT, 0.05% BSA) were added to the wells and shaken and then preincubated for 30 minutes at room temperature to allow compound binding to equilibrate. After equilibration, 2 μL of 10×ATP in 1× assay buffer was added to initiate the kinase reaction and the plates were shaken and then incubated at room temperature for 120 minutes. At the end of the incubation, 20 μL of 2× stop buffer (streptavidin-Dylight 650 (Thermo #84547B100 mL), Eu-tagged pY20 antibody (Perkin Elmer #AD0067), EDTA, HEPES, and Triton) was added to quench the reaction. Plates were shaken and centrifuged and then incubated 60 minutes at room temperature and then read on a Perkin Elmer Envision (λex=337 nm, λem=665 and 615 nm, TRF delay time=20 μs). HTRF signal=10,000*665 nm reading 615 nm reading. After normalization to untreated controls, the percent inhibition of the HTRF signal at each compound concentration was calculated. The plot of percent inhibition versus the log of compound concentration was fit with a 4-parameter dose response equation to calculate IC50 values.
# JAK3, sequence (P52333 822-1111): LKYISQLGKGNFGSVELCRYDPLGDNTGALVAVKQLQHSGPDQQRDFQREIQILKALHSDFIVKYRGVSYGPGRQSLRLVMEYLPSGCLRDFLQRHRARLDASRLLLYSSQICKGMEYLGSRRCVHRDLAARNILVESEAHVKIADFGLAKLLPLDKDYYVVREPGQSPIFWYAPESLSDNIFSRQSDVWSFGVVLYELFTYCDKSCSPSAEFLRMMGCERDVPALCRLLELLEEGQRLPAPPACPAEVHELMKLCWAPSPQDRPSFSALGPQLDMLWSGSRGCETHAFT
SMILES,IC50 (JAK3) [nM],IC50 (JAK2) [nM],IC50 (JAK3; given as range class) [nM],IC50 (JAK2; given as range class) [nM]
"CCCOC(=O)c1c[nH]c2ncnc(-c3ccc4cn(C)nc4c3)c12 [Example 2-1, Propyl 4-(2-methyl-2H-indazol-6-yl)-7H-pyrrolo[2,3-d]pyrimidine-5-carboxylate]",9,153,,
"C=C(C)C(=O)Nc1cc(-c2ncnc3[nH]cc(C(=O)OCC)c23)cn(C)c1=O [Example 4-34, ethyl 4-{1-methyl-5-[(2-methylacryloyl)amino]-6-oxo-1,6-dihydropyridin-3-yl}-7H-pyrrolo[2,3-d]pyrimidine-5-carboxylate]",1.1,> 1500,,
"C=C(CF)C(=O)Nc1cccc(-c2ncnc3[nH]cc(C(=O)OCC)c23)c1 [Example 15-1, Ethyl-4-(3-{[2-(fluoromethyl)acryloyl]amino}phenyl)-7H-pyrrolo[2,3-d]pyrimidine-5-carboxylate]",0.024,> 1500,,
"CCOC(=O)c1c[nH]c2ncnc(-c3cccc(NC(=O)/C=C/c4ccc(OC)cc4)c3)c12 [Example 5-29, ethyl 4-(3-{[(2E)-3-(4-methoxyphenyl)prop-2-enoyl]amino}phenyl)-7H-pyrrolo[2,3-d]pyrimidine-5-carboxylate]",,,10 to 500,> 500
"C=C(C)S(=O)(=O)Nc1cccc(-c2ncnc3[nH]cc(C(=O)OCC)c23)c1 [Example 10-3, ethyl 4-(3-{[(1-methylethenyl)sulfonyl]amino}phenyl)-7H-pyrrolo[2,3-d]pyrimidine-5-carboxylate]",,,10 to 500,> 500
"CCOC(=O)c1c[nH]c2ncnc(-c3cnn(C)c3)c12 [Example 1-27, ethyl 4-(1-methyl-1H-pyrazol-4-yl)-7H-pyrrolo[2,3-d]pyrimidine-5-carboxylate]",,,10 to 500,> 500
"C=C(C)C(=O)Nc1cccc(-c2ncnc3[nH]cc(C4CCCO4)c23)c1 (centres unmarked) [Example 25, N-(3-(5-(Tetrahydrofuran-2-yl)-7H-pyrrolo[2,3-d]pyrimidin-4-yl)phenyl)methacrylamide]",,,10 to 500,> 500
"CCOC(=O)c1c[nH]c2ncnc(C3=CCC(O)CC3)c12 (centres unmarked) [Example 1-86, ethyl 4-(4-hydroxycyclohex-1-en-1-yl)-7H-pyrrolo[2,3-d]pyrimidine-5-carboxylate]",,,10 to 500,10 to 500
"CCOC(=O)c1c[nH]c2ncnc(-c3cccc(C(C)(C)O)c3)c12 [Example 1-105, ethyl 4-[3-(1-hydroxy-1-methylethyl)phenyl]-7H-pyrrolo[2,3-d]pyrimidine-5-carboxylate]",,,10 to 500,> 500
"CCOC(=O)c1c[nH]c2ncnc(-c3cccc(NC(=O)/C=C/c4ccc(C(F)(F)F)cc4)c3)c12 [Example 5-44, ethyl 4-[3-({(2E)-3-[4-(trifluoromethyl)phenyl]prop-2-enoyl}amino)phenyl]-7H-pyrrolo[2,3-d]pyrimidine-5-carboxylate]",,,10 to 500,> 500
"CCOC(=O)c1c[nH]c2ncnc(-c3cccc(-c4nc(C#N)ns4)c3)c12 [Example 7-4, Ethyl 4-(3-(cyano-1,2,4-thiadiazol-5-yl)phenyl)-7H-pyrrolo[2,3-d]pyrimidine-5-carboxylate]",,,10 to 500,> 500
"C=CC(=O)Nc1cccc(-c2ncnc3[nH]cc(-c4ccccc4)c23)c1 [Example 20-9, N-[3-(5-phenyl-7H-pyrrolo[2,3-d]pyrimidin-4-yl)phenyl]prop-2-enamide]",0.016,> 1500,,
"C=C(C)C(=O)Nc1cc(F)cc(-c2ncnc3[nH]cc(C(=O)OCC)c23)c1 [Example 4-19, ethyl 4-{3-fluoro-5-[(2-methylacryloyl)amino]phenyl}-7H-pyrrolo[2,3-d]pyrimidine-5-carboxylate]",0.05,> 1500,,
"C=C(C)C(=O)Nc1cc(-c2ncnc3[nH]cc(C(=O)OCC)c23)ccc1OC [Example 4-17, ethyl 4-{4-methoxy-3-[(2-methylacryloyl)amino]phenyl}-7H-pyrrolo[2,3-d]pyrimidine-5-carboxylate]",0.11,> 1500,,
"C=C(C)C(=O)Nc1cccc(-c2ncnc3[nH]cc(-c4cnc[nH]4)c23)c1 [Example 21-2, N-(3-(5-(1H-imidazol-5-yl)-7H-pyrrolo[2,3-d]pyrimidin-4-yl)phenyl)methacrylamide]",7.5,> 1500,,
"CCOC(=O)c1c[nH]c2ncnc(-c3ccc(C(=O)NC4CCOC4)cc3)c12 (centres unmarked) [Example 1-100, ethyl 4-[4-(tetrahydrofuran-3-ylcarbamoyl)phenyl]-7H-pyrrolo[2,3-d]pyrimidine-5-carboxylate]",,,10 to 500,> 500
"CCOC(=O)c1c[nH]c2ncnc(-c3ccncc3)c12 [Example 1-14, ethyl 4-pyridin-4-yl-7H-pyrrolo[2,3-d]pyrimidine-5-carboxylate]",,,10 to 500,> 500
C=C(C)C(=O)Nc1cc(-c2ncnc3[nH]cc(C(=O)OCC)c23)ccc1C [Example 4-10],0.15,> 1500,,
"CCOC(=O)c1c[nH]c2ncnc(-c3cccc(NC(=O)/C=C/c4ccccn4)c3)c12 [Example 5-16, ethyl 4-(3-{[(2E)-3-pyridin-2-ylprop-2-enoyl]amino}phenyl)-7H-pyrrolo[2,3-d]pyrimidine-5-carboxylate]",6.6,452,,
"C=C(C)C(=O)Nc1cccc(-c2ncnc3[nH]cc(-c4c(C)cc(C)cc4C)c23)c1 [Example 20-8, 2-methyl-N-{3-[5-(2,4,6-trimethylphenyl)-7H-pyrrolo[2,3-d]pyrimidin-4-yl]phenyll}prop-2-enamide]",,,10 to 500,> 500
"CCOC(=O)c1c[nH]c2ncnc(-c3cnn(CCOC)c3)c12 [Example 1-99, ethyl 4-[1-(2-methoxyethyl)-1H-pyrazol-4-yl]-7H-pyrrolo[2,3-d]pyrimidine-5-carboxylate]",,,10 to 500,> 500
"CCOC(=O)c1c[nH]c2ncnc(C3=CCN(C(=O)OC(C)(C)C)C3)c12 [Example 1-20, ethyl 4-[1-(tert-butoxycarbonyl)-2,5-dihydro-1H-pyrrol-3-yl]-7H-pyrrolo[2,3-d]pyrimidine-5-carboxylate]",,,10 to 500,> 500
"C=C(C)C(=O)N1CCc2ccc(-c3ncnc4[nH]cc(C(=O)OCC)c34)cc21 [Example 4-21, ethyl 4-[1-(2-methylacryloyl)-2,3-dihydro-1H-indol-6-yl]-7H-pyrrolo[2,3-d]pyrimidine-5-carboxylate]",2.3,> 1500,,
"CCOC(=O)c1c[nH]c2ncnc(-c3cccc(Cl)c3)c12 [Example 1-39, ethyl 4-(3-chlorophenyl)-7H-pyrrolo[2,3-d]pyrimidine-5-carboxylate]",8.4,,,
"COc1ccccc1-c1c[nH]c2ncnc(-c3ccc4cn(C)nc4c3)c12 [Example 33-2, 5-(2-methoxyphenyl)-4-(2-methyl-2H-indazol-6-yl)-7H-pyrrolo[2,3-d]pyrimidine]",6.9,> 1500,,
"CCOC(=O)c1c[nH]c2ncnc(-c3ccsc3)c12 [Example 1-57, ethyl 4-thiophen-3-yl-7H-pyrrolo[2,3-d]pyrimidine-5-carboxylate]",,,10 to 500,10 to 500
"CCOC(=O)c1c[nH]c2ncnc(-c3cccc(Nc4nc(C#N)ns4)c3)c12 [Example 6-4, ethyl 4-{3-[(3-cyano-1,2,4-thiadiazol-5-yl)amino]phenyl}-7H-pyrrolo[2,3-d]pyrimidine-5-carboxylate]",,,10 to 500,> 500
"CCOC(=O)c1c[nH]c2ncnc(-c3ccc(CO)c(N)c3)c12 [Example 1-32, ethyl 4-[3-amino-4-(hydroxymethyl)phenyl]-7H-pyrrolo[2,3-d]pyrimidine-5-carboxylate]",8.3,,,
"CCOC(=O)c1c[nH]c2ncnc(-c3ccc4c(F)n(C)nc4c3)c12 [Example 1-29, ethyl 4-(3-fluoro-2-methyl-2H-indazol-6-yl)-7H-pyrrolo[2,3-d]pyrimidine-5-carboxylate]",8.1,,,
"CCOC(=O)c1c[nH]c2ncnc(-c3cccc(OCc4ccccc4)c3)c12 [Example 1-52, ethyl 4-[3-(benzyloxy)phenyl]-7H-pyrrolo[2,3-d]pyrimidine-5-carboxylate]",3.3,,,
